Legend:
[1] = molecular target: T1, NR4A1 (Homo sapiens, UniProt P22736); test: NR4A1 degradation in CHL-1 human melanoma cells (immunoblotting); assay type: cell-based; settings: CHL-1 cells, 16 h
T1 construct: NR-V04 effectively promoted the degradation of NR4A1 in two human melanoma cell lines within 16 h; endogenous in cells; host or cells: CHL-1, A375, WM164, M229 human melanoma cells
Description: Human melanoma cell lines: A375 and CHL-1 (gifts from Dr. D. Zhou, the University of Texas Health Science Center, San Antonio, TX, USA) were cultured in Dulbecco’s Modified Eagles’ Medium (DMEM, D5796; Sigma-Aldrich), WM164 and M229 (gifts from Dr. K.S.M. Smalley’s lab) were cultured in RPMI-1640 (R8758; Sigma-Aldrich). Mouse melanoma cell lines: B16F10 (CRL-6475, ATCC) was cultured in DMEM, SW1 and SM1 (gift from Dr. K.S.M. Smalley, Moffitt Cancer Center, Tampa, FL, USA) were cultured in RPMI. Human epithelial kidney cell lines: HEK293T (293T, CRL-3216; ATCC) and Vhl-KO-293T (gift from Dr. D. Zhou, the University of Texas Health Science Center, San Antonio, TX, USA) were cultured in DMEM. Mouse colon cancer cell lines: MC38 (ENH204-FP; Kerafast Inc.) was cultured in DMEM supplemented with 1 mM glutamine, […] non-essential amino acids (11140050; Thermo Fisher Scientific), 1 mM sodium pyruvate (11360070; Thermo Fisher Scientific), and 10 mM HEPES (15630080; Thermo Fisher Scientific). All cell culturing media were supplemented with 10% fetal bovine serum (FBS, F2442; Sigma-Aldrich), 100 U/ml penicillin, and 100 µg/ml streptomycin (P4333; Sigma-Aldrich).
Samples were lysed using radioimmunoprecipitation assay buffer (RIPA) lysis buffer (150 mM NaCl, 5 mM EDTA, 50 mM Tris pH 8.0, 0.5% sodium deoxycholate, 1% NP-40, 0.1% SDS) supplemented with 1 mM dithiothreitol and protease inhibitors. The lysates were separated by SDS-PAGE and analyzed using standard western blotting procedures ([Khan et al., 2019]). Antibodies: human NR4A1 (ab153914, 1:1,000; Abcam), mouse NR4A1 (14-5965-82, 1:1,000; Invitrogen), NR4A2 (AV38753, 1:1,000; Sigma-Aldrich), NR4A3 (TA804893, 1: 1,000; Thermo Fisher Scientific), VHL (68547, 1:1,000; Cell Signaling), β-actin (13E5, 1:5,000; Cell Signaling), β-tubulin (9F3, 1: 5,000; Cell Signaling), and GAPDH (D16H11, 1: 5,000; Cell Signaling) were employed for protein detection.

[2] = test system: NR4A1 mRNA; test: NR4A1 mRNA by qPCR in CHL-1 cells; assay type: cell-based, human; settings: 500 nM, ACTB as control
Description: Total RNA was extracted from cells using RNeasy Kits (74004; QIAGEN) following the manufacturer’s instructions. cDNA synthesis was performed using SuperScript III Reverse Transcriptase (18080044; Thermo Fisher Scientific) with 100 ng RNA as the template. Amplification of cDNA was carried out using 2× PowerUP SYBR Green Master Mix (A25778; Thermo Fisher Scientific). Each reaction was conducted in triplicates and results were normalized to the expression of a housekeeping gene. Primer (Eurofins): human β-actin (forward sequence: 5′-CACCATTGGCAATGAGCGGTTC-3′; reverse sequence: 5′-AGGTCTTTGCGGATGTCCACGT-3′) and human NR4A1 (forward sequence: 5′-GGACAACGCTTCATGCCAGCAT-3′; reverse sequence: 5′-CCTTGTTAGCCAGGCAGATGTAC-3′).

[3] = test system: MC38 tumors; test: MC38 colon cancer syngeneic tumor model; assay type: in vivo, mouse; settings: MC38 in WT mice, 1.8 mg/kg NR-V04 or 0.75 mg/kg celastrol i.p. twice a week from day 7
Source text: (§1) 7–9-wk-old C57BL/6J, B6.129S2-Ighm^tm1Cgn/J (002288), B6.129S2-Nr4a1^tm1Jmi/J (NR4A1^−/−, 006187), and NOD-SCID interleukin-2 receptor gamma null (NSG) mice were purchased from Jackson Laboratories. For all studies involving NR-V04 and celastrol, the compounds were formulated in 50% phosal PG, 45% miglyol 810N, and 5% polysorbate 80 and administered via i.p. injection.
(§2) For syngeneic tumor models, 5 × 10^5 cells MC38, Yumm1.7, and Yummer1.7, 1 × 10^5 cells of B16F10 were resuspended in PBS and implanted into 7–9-wk-old mice subcutaneously. For the tumor inhibition experiment, mice were treated with 1.8 mg/kg NR-V04 or 0.75 mg/kg celastrol by i.p. injection twice weekly. For the immune profile experiment, once tumors reached 0.5 cm in diameter, mice were treated with 1.8 mg/kg NR-V04 by i.p. injection twice weekly. For the toxicity experiment, male and female non-tumor-bearing mice were treated with 2 mg/kg NR-V04 for two doses in the first week and 5 mg/kg for another two doses in the second week. Blood samples were taken from the submandibular (facial) vein before each treatment and 42 days later for hematological analysis, and body weight was measured twice per week up to day 42. Mice were euthanized in accordance with the IACUC protocol once the largest tumors reached 2 cm in diameter, and tissues were collected for further analysis.

[4] = test system: B16F10 melanoma; test: B16F10 melanoma syngeneic tumor model; assay type: in vivo, mouse; settings: B16F10 in WT mice, 1.8 mg/kg NR-V04 or 0.75 mg/kg celastrol i.p. twice a week from day 7
Source text: as §1, §2

[5] = molecular target: NR4A1; settings: ref Hu et al., 2017; read-out: binding affinity of celastrol to NR4A1 (Kd); cited from earlier work
[6] = molecular target: NR4A1 and VHL (Homo sapiens, UniProt P22736+P40337); test: Proximity ligation assay (PLA) for the NR4A1-VHL ternary complex; assay type: cell-based; design: endogenous in cells; host or cells: CHL-1 and A375 human melanoma cells; settings: CHL-1 and A375 cells, 500 nM, 16 h, 0.5 μM MG132 pretreatment
NR4A1 and VHL, sequence (P22736 whole entry): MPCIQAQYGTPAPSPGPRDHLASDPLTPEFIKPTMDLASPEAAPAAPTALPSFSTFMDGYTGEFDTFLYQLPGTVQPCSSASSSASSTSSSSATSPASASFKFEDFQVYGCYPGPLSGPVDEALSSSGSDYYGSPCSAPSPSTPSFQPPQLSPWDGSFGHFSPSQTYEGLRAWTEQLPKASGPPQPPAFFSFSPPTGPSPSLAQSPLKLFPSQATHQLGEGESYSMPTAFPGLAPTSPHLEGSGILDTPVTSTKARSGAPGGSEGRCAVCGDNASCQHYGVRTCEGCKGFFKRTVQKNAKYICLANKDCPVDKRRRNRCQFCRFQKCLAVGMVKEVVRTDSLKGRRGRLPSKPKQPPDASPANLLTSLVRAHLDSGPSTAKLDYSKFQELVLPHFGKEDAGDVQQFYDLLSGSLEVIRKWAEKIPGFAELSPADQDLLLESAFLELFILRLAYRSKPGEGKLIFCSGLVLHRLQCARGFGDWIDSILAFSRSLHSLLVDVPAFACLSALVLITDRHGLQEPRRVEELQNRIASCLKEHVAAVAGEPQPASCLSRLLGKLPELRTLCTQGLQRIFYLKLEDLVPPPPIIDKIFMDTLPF
NR4A1 and VHL, sequence (P40337 whole entry): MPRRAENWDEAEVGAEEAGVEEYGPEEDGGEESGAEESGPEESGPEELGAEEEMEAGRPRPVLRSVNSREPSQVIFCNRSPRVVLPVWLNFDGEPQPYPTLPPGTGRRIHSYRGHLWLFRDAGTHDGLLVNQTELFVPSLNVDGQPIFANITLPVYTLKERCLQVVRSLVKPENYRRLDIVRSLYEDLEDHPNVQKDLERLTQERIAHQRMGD
NR4A1 and VHL, sequence (Q15369 whole entry partner): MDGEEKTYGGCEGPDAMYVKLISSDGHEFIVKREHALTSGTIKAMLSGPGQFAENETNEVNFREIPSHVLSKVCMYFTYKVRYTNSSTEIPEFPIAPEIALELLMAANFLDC
NR4A1 and VHL, sequence (Q15370 whole entry partner): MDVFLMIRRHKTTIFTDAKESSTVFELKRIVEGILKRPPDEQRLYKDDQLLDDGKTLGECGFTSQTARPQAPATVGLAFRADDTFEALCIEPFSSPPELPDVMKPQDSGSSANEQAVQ
Description: 5 × 10^4 CHL-1 and A375 cells were cultured in Nunc Lab-Tek Chamber Slide (177402; Thermo Fisher Scientific). The cells were treated with DMSO, 500 nM celastrol, and 500 nM NR-V04 for 16 h with MG132 inhibitor. The PLA was conducted with Duolink In Situ Red Starter Kit Mouse/Rabbit (DUO92101; Sigma-Aldrich) following the standard protocol. Additionally, a non-stain cell group was included as a negative control to account for background signal during PLA assay. The signal was detected using a confocal microscope (LSM 710; Zeiss). Primary antibody: NR4A1 (HPA059742, 2 μg/ml, isotype-rabbit; Sigma-Aldrich) and VHL (MA5-13940, 2 μg/ml, isotype-mouse; Thermo Fisher Scientific).

T1 sequence (P22736 whole entry): as the sequence (P22736 whole entry) above

For `CC1=C(O)C(=O)C=C2C1=CC=C1[C@@]2(C)CC[C@@]2(C)[C@@H]3C[C@](C)(C(=O)O)CC[C@]3(C)CC[C@]12C` [celastrol, reference compound], the “NR4A1 protein level, initial screening” value ([1]; 250 nM, immunoblotting and densitometry) was “did not alter the protein level of NR4A1”, the “NR4A1 protein level, dose response” value [1] was “did not change NR4A1 protein level” and the “NR4A1 mRNA level” value [2] was “increase in NR4A1 mRNA levels after 2 h”. For the same molecule, the tumor growth [3] was “failure to inhibit tumor growth of MC38 tumors”, the tumor growth [4] was “increased growth of B16F10 tumors” and the Kd [5] was 290 nM. For the same molecule, the “PLA signals (ternary complex formation NR4A1-VHL)” value [6] was “did not”.

— PMC10857906, “PROTAC-mediated NR4A1 degradation as a novel strategy for cancer immunotherapy” (The Journal of Experimental Medicine, 2024)
